Source: PubChem BioAssay AID651788 (The Scripps Research Institute Molecular Screening Center, 2012)
pIC50: −log10 of the molar value. Activity calls are given as the source filed them.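 How the source made its calls: active means IC50 for SRC3 coactivator inhibition, the dose giving half inhibition, at or below 10 µM; inactive means IC50 above 10 µM.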

Each compound was assayed against Nuclear receptor coactivator 3 (Homo sapiens) (UniProt Q9Y6Q9) (assay: inhibition of GAL4-SRC3 reporter transcription – cell-based, HEK293, GAL4-SRC3 luciferase, powder samples, late-stage follow-up (AID 651788)). Conditions: luminescence.
Chain of Nuclear receptor coactivator 3 (Homo sapiens) (Q9Y6Q9 whole entry, looked up, the tested form may be a part): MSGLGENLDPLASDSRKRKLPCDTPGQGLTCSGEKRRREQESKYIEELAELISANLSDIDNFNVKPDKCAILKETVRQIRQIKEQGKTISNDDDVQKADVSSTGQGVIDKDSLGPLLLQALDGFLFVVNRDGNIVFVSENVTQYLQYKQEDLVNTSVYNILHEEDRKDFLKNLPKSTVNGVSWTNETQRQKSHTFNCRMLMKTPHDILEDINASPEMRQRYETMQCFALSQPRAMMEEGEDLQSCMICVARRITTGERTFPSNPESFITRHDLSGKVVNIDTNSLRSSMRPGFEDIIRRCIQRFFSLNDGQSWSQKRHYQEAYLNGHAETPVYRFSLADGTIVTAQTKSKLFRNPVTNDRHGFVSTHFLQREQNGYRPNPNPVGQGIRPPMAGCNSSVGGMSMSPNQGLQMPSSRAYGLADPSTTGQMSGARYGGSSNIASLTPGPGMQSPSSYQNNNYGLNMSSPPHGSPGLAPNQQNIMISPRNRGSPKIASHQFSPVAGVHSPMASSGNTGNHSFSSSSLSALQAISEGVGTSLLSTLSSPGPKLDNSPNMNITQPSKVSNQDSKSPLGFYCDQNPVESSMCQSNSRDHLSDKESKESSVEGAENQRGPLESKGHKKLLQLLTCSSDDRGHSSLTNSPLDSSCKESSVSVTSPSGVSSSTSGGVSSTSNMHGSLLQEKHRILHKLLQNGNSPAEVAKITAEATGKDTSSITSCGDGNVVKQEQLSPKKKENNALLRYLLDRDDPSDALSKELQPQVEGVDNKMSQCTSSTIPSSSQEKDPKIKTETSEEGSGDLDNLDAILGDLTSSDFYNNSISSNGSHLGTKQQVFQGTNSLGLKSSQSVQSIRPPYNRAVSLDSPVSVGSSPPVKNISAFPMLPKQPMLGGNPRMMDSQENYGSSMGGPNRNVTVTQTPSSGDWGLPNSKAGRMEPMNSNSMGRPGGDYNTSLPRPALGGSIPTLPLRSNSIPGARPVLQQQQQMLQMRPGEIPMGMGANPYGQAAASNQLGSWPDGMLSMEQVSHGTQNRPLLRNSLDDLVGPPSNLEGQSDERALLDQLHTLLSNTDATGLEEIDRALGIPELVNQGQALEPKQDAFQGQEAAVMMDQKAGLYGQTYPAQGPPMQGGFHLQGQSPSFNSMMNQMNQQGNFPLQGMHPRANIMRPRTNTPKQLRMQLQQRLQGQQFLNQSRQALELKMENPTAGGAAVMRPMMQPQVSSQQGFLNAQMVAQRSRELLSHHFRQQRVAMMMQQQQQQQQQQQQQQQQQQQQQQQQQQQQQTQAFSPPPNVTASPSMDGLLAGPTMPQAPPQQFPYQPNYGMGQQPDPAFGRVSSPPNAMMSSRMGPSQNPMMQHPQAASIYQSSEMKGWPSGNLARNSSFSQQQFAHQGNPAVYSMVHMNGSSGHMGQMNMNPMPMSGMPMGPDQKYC

pIC50, active:
O=C(COC(=O)c1ccc[nH]c1=O)Nc1ccc(N2CCCCC2)cc1 5.08
O=C(Nc1ccccc1Oc1ccccc1)c1cc([N+](=O)[O-])ccc1Cl 5.51
CN1C(=O)C2(C(C#N)=C(N)N(c3cc(Cl)cc(Cl)c3)C3=C2C(=O)CCC3)c2ccccc21 (stereo not drawn) 5.24
CN1C(=O)C2(C(C#N)=C(N)N(c3cc(Cl)cc(Cl)c3)C3=C2C(=O)CC(C)(C)C3)c2ccccc21 (stereo not drawn) 5.35
CCCNC(=O)c1nnsc1S(=O)(=O)c1ccc(Cl)cc1 5.40
OCCN1CCN(C(=S)c2ccc(-c3ccccc3)cc2)CC1 5.30

IC50, inactive:
CC(C)(C)c1ccc(-c2noc(CCC(=O)Nc3cccnc3)n2)cc1 > 12 µM
Cc1ccc(OCC(=O)c2cc(C)n(-c3ccccc3)c2C)c([N+](=O)[O-])n1
